Assays:
[1] = system: Adjuvant-induced Edema in Left Legs; test: adjuvant-induced arthritis in rats, edema in left legs; assay type: in vivo, female Wistar rats
Experimental: (§1) Eight female Wistar rats in each group, weighing 140-200 g were used. The arthritis was induced by intradermal injection of Mycobacterium butyricum suspended in liquid paraffin (0.6 mg/0.1 ml) as the adjuvant to tail. The change in volume of both legs due to the formation of edema was measured 12, 16 and 19 days after the adjuvant challenge. In addition, a severity of the secondary inflammation observed in auricles, paws, legs and tail was graded into the degrees of 0-4.

[2] = system: Adjuvant-induced Edema in Right Legs; test: adjuvant-induced arthritis in rats, edema in right legs; assay type: in vivo, female Wistar rats
Experimental: as §1

[3] = system: Adjuvant-induced Secondary Inflammation; test: adjuvant-induced arthritis in rats, secondary inflammation; assay type: in vivo, female Wistar rats
Experimental: as §1

[4] = system: adjuvant-induced experimental arthritis; test: adjuvant-induced experimental arthritis in rats (overall); assay type: in vivo; conditions: oral, 20 mg/kg once or 10 mg/kg twice every day
Experimental: as §1

acute toxicity in rats = conditions: rat, in vivo
acute toxicity in mice = conditions: mouse, in vivo
rats and mice = test: toxicological studies (acute, subacute, chronic); assay type: in vivo; conditions: acute (several routes), subacute (oral, one month), chronic (oral, six months)
[5] = system: type I (immediate type) allergic reaction; conditions: own earlier publications; cited from earlier work
[6] = system: Arthus reaction (type III allergic reaction); conditions: own earlier publication; cited from earlier work
[7] = disclosed in earlier patents; cited from earlier work
[8] = disclosed in earlier patents; cited from earlier work; remark: listed apart in the source
[9] = 10 × 2 mg/kg/day p.o., 12th day
[10] = 10 × 2 mg/kg/day p.o., 16th day
[11] = 10 × 2 mg/kg/day p.o., 19th day

Structure (SMILES): CC(C)C(=O)c1c(C(C)C)nn2ccccc12 [KC-404, 3-isobutyryl-2-isopropylpyrazalo[1,5-a]pyridine]
- Inhibition of edema in left legs ([1]; 20 mg/kg/day p.o., 12th day): 71.7%
- Inhibition of edema in left legs ([1]; 20 mg/kg/day p.o., 16th day): 79.9%
- Inhibition of edema in left legs ([1]; 20 mg/kg/day p.o., 19th day): 61.1%
- Inhibition of edema in left legs [1, 9]: 50.2%
- Inhibition of edema in left legs [1, 10]: 28.6%
- Inhibition of edema in left legs [1, 11]: 41.9%
- Inhibition of edema in right legs ([2]; 20 mg/kg/day p.o., 12th day): 44.4%
- Inhibition of edema in right legs ([2]; 20 mg/kg/day p.o., 16th day): 80.8%
- Inhibition of edema in right legs ([2]; 20 mg/kg/day p.o., 19th day): 53.1%
- Inhibition of edema in right legs [2, 9]: 19.8%
- Inhibition of edema in right legs [2, 10]: 56.6%
- Inhibition of edema in right legs [2, 11]: 39.9%
- Inflammation Score ([3]; 20 mg/kg/day p.o., 16th day, control 11.8): 6.6
- Inflammation Score ([3]; 20 mg/kg/day p.o., 19th day, control 17.0): 10.3
- Inflammation Score ([3]; 10 × 2 mg/kg/day p.o., 16th day, control 11.8): 9.0
- Inflammation Score ([3]; 10 × 2 mg/kg/day p.o., 19th day, control 17.0): 11.4
- inhibition of the production of adjuvant-induced experimental arthritis [4]: markedly inhibits
- LD50 (acute toxicity in rats; ip, Female): 419 mg/kg
- LD50 (acute toxicity in rats; ip, Male): 500 mg/kg
- LD50 (acute toxicity in rats; iv, Female): 42.5 mg/kg
- LD50 (acute toxicity in rats; iv, Male): 43.2 mg/kg
- LD50 (acute toxicity in rats; po, Female): 1400 mg/kg
- LD50 (acute toxicity in rats; sc, Female): 1370 mg/kg
- LD50 (acute toxicity in rats; sc, Male): 1450 mg/kg
- LD50 (acute toxicity in mice; ip, Female): 500 mg/kg
- LD50 (acute toxicity in mice; ip, Male): 460 mg/kg
- LD50 (acute toxicity in mice; iv, Female): 146 mg/kg
- LD50 (acute toxicity in mice; iv, Male): 160 mg/kg
- LD50 (acute toxicity in mice; po, Female): 1860 mg/kg
- LD50 (acute toxicity in mice; po, Male): 1880 mg/kg
- LD50 (acute toxicity in mice; sc, Female): 3100 mg/kg
- LD50 (acute toxicity in mice; sc, Male): 3000 mg/kg
- toxicity (rats and mice): low in toxicity
- effect on type I allergic reaction [5]: inhibitory effect
- effect on the Arthus reaction (type III allergic reaction) [6]: inhibits
- cerebral vasodilating effect [7]: Cerebral vasodilating
- bronchodilating effect [8]: bronchodilating

Structure (SMILES): C[C@]12CCC(=O)C=C1CC[C@@H]1[C@@H]2[C@@H](O)C[C@@]2(C)[C@H]1CC[C@]2(O)C(=O)CO [Hydrocortisone, reference compound]
- Inhibition of edema in left legs ([1]; 5 mg/kg/day p.o., 12th day): 57.0%
- Inhibition of edema in left legs ([1]; 5 mg/kg/day p.o., 16th day): 53.1%
- Inhibition of edema in left legs ([1]; 5 mg/kg/day p.o., 19th day): 54.7%
- Inhibition of edema in right legs ([2]; 5 mg/kg/day p.o., 12th day): 90.9%
- Inhibition of edema in right legs ([2]; 5 mg/kg/day p.o., 16th day): 60.1%
- Inhibition of edema in right legs ([2]; 5 mg/kg/day p.o., 19th day): 57.8%
- Inflammation Score ([3]; 5 mg/kg/day p.o., 16th day, control 11.8): 8.1
- Inflammation Score ([3]; 5 mg/kg/day p.o., 19th day, control 17.0): 9.3
